How the values were obtained:
Assay type in all cases: cell-based
hPPAR-γ = molecular target: T1, hPPAR-γ (Homo sapiens, UniProt P37231); assay: GAL4-DBD hPPARγ/LBD luciferase reporter assay in HEK293T cells; conditions: activation, overnight
T1 construct: expressed in transfected cells; host or cells: HEK293T
T1 sequence (P37231 184-477 isoform P37231-2): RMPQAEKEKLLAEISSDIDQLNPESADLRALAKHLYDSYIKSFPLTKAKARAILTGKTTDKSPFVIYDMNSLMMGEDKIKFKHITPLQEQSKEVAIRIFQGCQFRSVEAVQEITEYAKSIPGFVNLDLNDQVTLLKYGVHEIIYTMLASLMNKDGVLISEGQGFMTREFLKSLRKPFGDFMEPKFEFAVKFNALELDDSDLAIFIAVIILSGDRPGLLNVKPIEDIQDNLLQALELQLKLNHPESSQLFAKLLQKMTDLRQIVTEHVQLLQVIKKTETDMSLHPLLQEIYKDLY
Experimental: (§1) A GAL4-DNA Binding Domain (GAL4-DBD) fusion protein was constructed for each PPAR family member. To assess compound activity, each construct was co-transfected into HEK293T cells (American Type Culture Collection; Manassass, VA) along with the reporter construct, pGL5 (Promega) using Fugene 6 (Promega) as a transfection reagent and the manufacturer’s protocol. An eleven point dilution series of each compound was added to the cells and incubated overnight. Luciferase levels were then determined following the addition of Bright-Glo (Promega) using the manufacturer’s recommendations.

hPPAR-α = molecular target: T2, hPPAR-α (Homo sapiens, UniProt Q07869); assay: GAL4-DBD hPPARα/LBD luciferase reporter assay in HEK293T cells; conditions: activation, overnight
T2 construct: expressed in transfected cells; host or cells: HEK293T
T2 sequence (Q07869 175-468): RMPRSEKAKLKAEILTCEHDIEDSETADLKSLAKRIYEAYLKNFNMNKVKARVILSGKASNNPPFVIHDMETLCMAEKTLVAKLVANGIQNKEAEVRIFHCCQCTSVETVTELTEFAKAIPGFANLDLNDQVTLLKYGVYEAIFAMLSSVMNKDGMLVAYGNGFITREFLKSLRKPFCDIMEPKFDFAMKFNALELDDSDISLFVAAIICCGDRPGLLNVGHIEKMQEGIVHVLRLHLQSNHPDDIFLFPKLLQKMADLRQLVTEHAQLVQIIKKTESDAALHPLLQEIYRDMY
Experimental: as §1

hPPAR-δ = molecular target: T3, hPPAR-δ (Homo sapiens, UniProt Q03181); assay: GAL4-DBD hPPARδ/LBD luciferase reporter assay in HEK293T cells; conditions: for EC50: activation, HEK293T reporter, overnight; for hPPAR subtype profile: from EC50 on hPPAR-δ, -α, -γ
T3 construct: expressed in transfected cells; host or cells: HEK293T
T3 sequence (Q03181 147-441): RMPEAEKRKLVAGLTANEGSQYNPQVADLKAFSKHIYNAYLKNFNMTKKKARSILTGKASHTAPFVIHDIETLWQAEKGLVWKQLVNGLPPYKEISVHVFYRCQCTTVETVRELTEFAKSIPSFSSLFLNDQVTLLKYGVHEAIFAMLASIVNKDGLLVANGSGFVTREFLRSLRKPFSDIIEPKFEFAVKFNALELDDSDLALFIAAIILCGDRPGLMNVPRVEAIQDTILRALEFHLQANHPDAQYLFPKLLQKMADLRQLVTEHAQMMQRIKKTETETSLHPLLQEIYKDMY
Experimental: as §1

| Structure (SMILES) | EC50 (hPPAR-δ) | hPPAR subtype profile (hPPAR-δ) | EC50 (hPPAR-γ) | EC50 (hPPAR-α) |
| --- | --- | --- | --- | --- |
| Cc1cccc(OCCNC(=O)COc2ccc(CC(=O)O)cc2)c1 [GNF-0242, CC1=CC=CC(OCCNC(=O)COC2=CC=C(CC(O)=O)C=C2)=C1] |  |  | > 10 µM | > 10 µM |
| O=C(COc1ccc(C(=O)O)cc1)NC(c1ccccc1)c1ccc(Cl)cc1 (centres unmarked) [GNF-0248, OC(=O)C1=CC=C(OCC(=O)NC(C2=CC=CC=C2)C2=CC=C(Cl)C=C2)C=C1] | 7.55 µM |  | > 10 µM | 7.04 µM |
| Cc1ccc(C(=O)Nc2cccc(CNCc3ccc(OC(F)(F)F)cc3)c2)cc1 [GNF-0341, CC1=CC=C(C=C1)C(=O)NC1=CC=CC(CNCC2=CC=C(OC(F)(F)F)C=C2)=C1] | 0.011 µM | agonists of hPPAR-δ and hPPAR-γ only | 1.26 µM | > 10 µM |
| O=C(O)Cc1csc(SCc2cc(F)cc3c2OC(c2ccccc2)OC3)n1 (centres unmarked) [GNF-1051, OC(=O)CC1=CSC(SCC2=CC(F)=CC3=C2OC(OC3)C2=CC=CC=C2)=N1] | 7.76 µM |  | > 10 µM | 7.33 µM |
| CCCOc1c(/C=C/C(=O)c2ccc(SCC(=O)O)c(OC)c2)cccc1OCC [GNF-1676, CCCOC1=C(OCC)C=CC=C1C=CC(=O)C1=CC=C(SCC(O)=O)C(OC)=C1] | 8.39 µM |  | 1.29 µM | 6.19 µM |
| O=C(NCc1ccc(COCC(F)(F)F)cc1)c1cc(-c2ccccc2)[nH]n1 [GNF-3632, FC(F)(F)COCC1=CC=C(CNC(=O)C2=NNC(=C2)C2=CC=CC=C2)C=C1] | 0.007 µM | agonists of hPPAR-δ and hPPAR-α only | > 10 µM | 5.48 µM |
| COc1ccc(C(=O)/C=C/c2c(C)nn(-c3ccccc3)c2Cl)cc1CSCC(=O)O [GNF-4909, COC1=CC=C(C=C1CSCC(O)=O)C(=O)C=CC1=C(Cl)N(N=C1C)C1=CC=CC=C1] | 8.24 µM |  | 1.83 µM | 0.825 µM |
| O=C(Nc1ccccc1O)C1CCN(C(=O)COc2ccc(F)cc2)CC1 [GNF-5891, OC1=CC=CC=C1NC(=O)C1CCN(CC1)C(=O)COC1=CC=C(F)C=C1] | 0.013 µM |  | 7.28 µM | > 10 µM |
| COc1ccc(N2CCN(C(=O)CSc3nnc(COc4ccc(Cl)cc4C)[nH]3)CC2)cc1 [GNF-7486, COC1=CC=C(C=C1)N1CCN(CC1)C(=O)CSC1=NN=C(COC2=CC=C(Cl)C=C2C)N1] | 0.018 µM |  | > 10 µM | > 10 µM |
| COc1ccc(CNCc2ccc(Oc3cccnc3)c(F)c2)cc1O [GNF-8065, COC1=CC=C(CNCC2=CC=C(OC3=CC=CN=C3)C(F)=C2)C=C1O] |  |  | > 10 µM | > 10 µM |
| CC(C(=O)Nc1ccc(SC(F)F)cc1)N1CC=C(c2ccc(O)cc2)CC1 (centres unmarked) [GNF-8208, CC(N1CCC(=CC1)C1=CC=C(O)C=C1)C(=O)NC1=CC=C(SC(F)F)C=C1] | 7.86 µM |  | > 10 µM | > 10 µM |
| O=C(CN1CCN(c2ccc(O)cc2)CC1)NCC1(N2CCOCC2)CCCCC1 [GNF-8501, OC1=CC=C(C=C1)N1CCN(CC(=O)NCC2(CCCCC2)N2CCOCC2)CC1] | 0.006 µM |  | > 10 µM | > 10 µM |
| Cc1cc(C(=O)COc2ccc(C(=O)O)cc2)c(C)n1CCC1=CCCCC1 [GNF-9057, CC1=CC(C(=O)COC2=CC=C(C=C2)C(O)=O)=C(C)N1CCC1=CCCCC1] | 7.49 µM |  | 8.59 µM | 4.63 µM |
| O=C(Nc1ccccc1O)C1CCN(C(=O)c2ccc(OCC3CCCO3)cc2)CC1 (centres unmarked) [GNF-9448, OC1=CC=CC=C1NC(=O)C1CCN(CC1)C(=O)C1=CC=C(OCC2CCCO2)C=C1] | 0.883 µM |  | 0.937 µM | 7.06 µM |
| Cc1ccc(-c2nc(SCCCC(=O)N3CCOCC3)[nH]c2-c2ccc(C)cc2)cc1 [GNF-9820, CC1=CC=C(C=C1)C1=C(N=C(N1)SCCCC(=O)N1CCOCC1)C1=CC=C(C)C=C1] | 0.012 µM |  | > 10 µM | > 10 µM |
| Cc1cc(C(=O)COC(=O)c2ccc(O)cc2O)c(C)n1Cc1ccc(F)cc1 [GNF-9969, CC1=CC(C(=O)COC(=O)C2=CC=C(O)C=C2O)=C(C)N1CC1=CC=C(F)C=C1] | 9.48 µM |  | 1.01 µM | 6.94 µM |

Now from value to molecule, other results behind:

| EC50 (hPPAR-δ) | hPPAR subtype profile (hPPAR-δ) | Structure (SMILES) | EC50 (hPPAR-γ) | EC50 (hPPAR-α) |
| --- | --- | --- | --- | --- |
| 6.82 µM |  | CCOc1cc(/C=C/C(=O)O)ccc1OCc1ccc(C(C)(C)C)cc1 [GNF-4516, CCOC1=CC(C=CC(O)=O)=CC=C1OCC1=CC=C(C=C1)C(C)(C)C] | > 10 µM | 2.33 µM |
| 7.04 µM |  | COCCCn1c(SCc2cccc(C(=O)O)c2)nc2sc3c(c2c1=O)CCCS3 [GNF-5154, COCCCN1C(=O)C2=C(SC3=C2CCCS3)N=C1SCC1=CC=CC(=C1)C(O)=O] |  |  |
| 4.33 µM |  | COc1cc(/C=C2/S/C(=N/c3ccccc3)NC2=O)ccc1OCc1cccc(C(=O)O)c1 [GNF-5758, COC1=CC(C=C2SC(NC2=O)=NC2=CC=CC=C2)=CC=C1OCC1=CC=CC(=C1)C(O)=O] | 9.73 µM | 6.93 µM |
| 0.012 µM |  | O=C(Nc1cccc(CNCC(c2cccs2)N2CCOCC2)c1)c1ccc(Cl)cc1 (centres unmarked) [GNF-6029, ClC1=CC=C(C=C1)C(=O)NC1=CC=CC(CNCC(N2CCOCC2)C2=CC=CS2)=C1] | > 10 µM | > 10 µM |
| 0.008 µM |  | CCOc1cccc(/C=N/c2cccc(-c3csc(/N=C/c4cccc(OCC)c4O)n3)c2)c1O [GNF-6878, CCOC1=CC=CC(C=NC2=NC(=CS2)C2=CC=CC(=C2)N=CC2=CC=CC(OCC)=C2O)=C1O] | > 10 µM | > 10 µM |
| 3.7 µM |  | O=C(OCC(=O)c1ccc(O)cc1O)c1ccc(COc2ccc3ccccc3c2)o1 [GNF-6928, OC1=CC=C(C(=O)COC(=O)C2=CC=C(COC3=CC=C4C=CC=CC4=C3)O2)C(O)=C1] | 3.78 µM | 6.9 µM |
| 0.019 µM | agonists of hPPAR-δ and hPPAR-α only | COc1cc(CNCc2cc(C)on2)ccc1OCC(=O)Nc1ccc(Br)cc1 [GNF-6952, COC1=CC(CNCC2=NOC(C)=C2)=CC=C1OCC(=O)NC1=CC=C(Br)C=C1] | > 10 µM | 7.56 µM |
| 7.24 µM |  | O=C(NCCCCOc1ccc(F)cc1)c1ccc([N+](=O)[O-])c(O)c1 [GNF-7176, OC1=CC(=CC=C1[N+]([O-])=O)C(=O)NCCCCOC1=CC=C(F)C=C1] | > 10 µM | > 10 µM |
| 4.6 µM |  | O=[N+]([O-])c1cc(S(=O)(=O)N2CCCC2)ccc1OCC(O)CNCc1ccc(F)cc1 (centres unmarked) [GNF-9594, OC(CNCC1=CC=C(F)C=C1)COC1=CC=C(C=C1[N+]([O-])=O)S(=O)(=O)N1CCCC1] | > 10 µM | > 10 µM |
